Test results from patent US11332459B2 (TEIJIN PHARMA LIMITED, priority 2017, dated 2022).
Where a name gives a salt, the structure may show the parent alone.

Molecular target: T1, human TRPC6 (Homo sapiens, UniProt Q9Y210)
T1 construct: expressed in transfected cells
T1 sequence (Q9Y210 1-931): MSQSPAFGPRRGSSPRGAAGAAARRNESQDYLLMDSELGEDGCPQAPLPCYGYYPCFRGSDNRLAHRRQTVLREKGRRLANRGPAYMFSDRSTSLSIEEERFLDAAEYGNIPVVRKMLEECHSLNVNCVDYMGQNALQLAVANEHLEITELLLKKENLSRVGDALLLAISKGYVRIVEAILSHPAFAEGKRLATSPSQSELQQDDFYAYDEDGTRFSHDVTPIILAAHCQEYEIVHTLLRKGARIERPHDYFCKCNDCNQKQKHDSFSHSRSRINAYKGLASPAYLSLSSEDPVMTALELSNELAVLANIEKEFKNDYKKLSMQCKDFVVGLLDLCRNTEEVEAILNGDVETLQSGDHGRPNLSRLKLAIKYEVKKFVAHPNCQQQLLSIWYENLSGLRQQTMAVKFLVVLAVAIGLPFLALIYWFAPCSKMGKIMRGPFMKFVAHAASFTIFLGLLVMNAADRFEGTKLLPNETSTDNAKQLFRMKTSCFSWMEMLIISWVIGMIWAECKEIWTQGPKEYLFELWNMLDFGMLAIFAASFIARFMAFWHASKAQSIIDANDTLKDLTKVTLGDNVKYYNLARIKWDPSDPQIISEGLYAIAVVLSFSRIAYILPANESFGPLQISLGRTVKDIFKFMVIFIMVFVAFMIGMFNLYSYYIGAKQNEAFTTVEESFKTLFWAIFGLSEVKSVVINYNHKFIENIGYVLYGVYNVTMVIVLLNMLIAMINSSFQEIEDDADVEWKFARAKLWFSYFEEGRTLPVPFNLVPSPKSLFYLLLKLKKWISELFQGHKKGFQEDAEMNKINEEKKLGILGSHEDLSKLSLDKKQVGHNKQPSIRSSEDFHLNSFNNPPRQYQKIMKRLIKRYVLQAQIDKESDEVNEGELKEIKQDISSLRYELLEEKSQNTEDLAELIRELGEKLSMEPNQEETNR
Assay: TRPC6 calcium flux assay (FLIPR, OAG-stimulated calcium influx)
Type: cell-based
Conditions: HEK293 cells stably transfected with human TRPC6, read-out: hTRPC6 Potency
Procedure, shortened: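 HEK293 cells stably expressing human TRPC6, loaded with calcium dye 90–120 min at RT, then given compound for 25 min before OAG (50 uM final, 0.5% DMSO) in HEPES buffer pH 7.2 with 2 mM CaCl2. Background-subtracted FLIPR peak over 180 s normalized to OAG vs buffer; IC50 from dose plot.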

Work on `N[C@@H]1CN(c2nc3cc(C(F)(F)F)ccc3n2CC(=O)N2CCC2)CC[C@@H]1F` [Example 309, 2-(2-((3R,4S)-3-amino-4-fluoropiperidin-1-yl)-5-(trifluoromethyl)-1H-benzo[d]imidazol-1-yl)-1-(azetidin-1-yl)ethan-1-one] yielded an IC50 of 280 nM.
`C[C@H](c1ccc(C#N)cn1)n1c(N2CCC[C@H](N)C2)nc2ccccc21` [Example 295, 6-((R)-1-(2-((S)-3-aminopiperidin-1-yl)-1H-benzo[d]imidazol-1-yl)ethyl)nicotinonitrile hydrochloride] gave an IC50 of 5.07 nM.
`N[C@@H]1CN(c2nc3ccc(F)cc3n2CC(=O)N[C@@H]2CCOC2)CC[C@H]1F` [Example 676, 2-(2-((3R,4R)-3-amino-4-fluoropiperidin-1-yl)-6-fluoro-1H-benzo[d]imidazol-1-yl)-N-((R)-tetrahydrofuran-3-yl)acetamide] was tested, and the IC50 was > 3750 nM.
Work on `N[C@@H]1CN(c2nc3ccc(F)cc3n2CC(=O)N(CC(F)(F)F)[C@H]2CCOC2)CC[C@H]1F` [Example 667, 2-(2-((3R,4R)-3-amino-4-fluoropiperidin-1-yl)-6-fluoro-1H-benzo[d]imidazol-1-yl)-N-((S)-tetrahydrofuran-3-yl)-N-(2,2,2-trifluoroethyl)acetamide] yielded an IC50 of 745 nM.
Compound `Cc1nnc(Cn2c(N3CC[C@@H](F)[C@H](N)C3)nc3cc(F)c(F)cc32)s1` [Example 553, (3R,4R)-1-(5,6-difluoro-1-((5-methyl-1,3,4-thiadiazol-2-yl)methyl)-1H-benzo[d]imidazol-2-yl)-4-fluoropiperidin-3-amine] has an IC50 of 6.69 nM.
Compound `COc1ccc2nc(N3CC[C@H](F)[C@H](N)C3)n(Cc3ccc(C#N)cc3)c2c1` [Example 403, 4-((2-((3R,4S)-3-amino-4-fluoropiperidin-1-yl)-6-methoxy-1H-benzo[d]imidazol-1-yl)methyl)benzonitrile] has an IC50 of 0.395 nM.
For `Cc1nnc(Cn2c(N3CCC(F)(F)[C@H](N)C3)nc3ccc(F)cc32)s1` [Example 588, (R)-4,4-difluoro-1-(6-fluoro-1-((5-methyl-1,3,4-thiadiazol-2-yl)methyl)-1H-benzo[d]imidazol-2-yl)piperidin-3-amine], the IC50 was 811 nM.
Work on `N[C@@H]1CN(c2nc3ccc(F)cc3n2CC(=O)N2CCOC[C@@H]2C2CC2)CC[C@H]1F` [Example 685, 2-(2-((3R,4R)-3-amino-4-fluoropiperidin-1-yl)-6-fluoro-1H-benzo[d]imidazol-1-yl)-1-((S)-3-cyclopropylmorpholino)ethan-1-one] yielded an IC50 of 1160 nM.
`N#Cc1ccc(Cn2c(N3CC[C@@H](F)[C@H](N)C3)nc3ccc(Cl)cc32)nc1` [Example 6, 6-((2-((3R,4R)-3-amino-4-fluoropiperidin-1-yl)-6-chloro-1H-benzo[d]imidazol-1-yl)methyl)nicotinonitrile] gave an IC50 of 0.4 nM.
With `N#Cc1ccc(Cn2c(N3CCC[C@]4(CCCN4)C3)nc3ccccc32)nc1` [Example 135, 6-((2-((5R)-1,7-diazaspiro[4.5]decan-7-yl)-1H-benzimidazol-1-yl)methyl)-3-pyridinecarbonitrile] the IC50 was > 3750 nM.
`N#Cc1ccc(Cn2c(N3CC[C@H](F)[C@H](N)C3)nc3cc(Cl)ccc32)nc1` [Example 9, 6-((2-((3R,4S)-3-amino-4-fluoropiperidin-1-yl)-5-chloro-1H-benzo[d]imidazol-1-yl)methyl)nicotinonitrile] was tested, and the IC50 was 1.61 nM.
Work on `CC(c1ccccn1)N(C)C(=O)Cn1c(N2CC[C@@H](F)[C@H](N)C2)nc2cc(F)c(F)cc21` (stereo partly drawn) [Example 638, 2-(2-((3R,4R)-3-amino-4-fluoropiperidin-1-yl)-5,6-difluoro-1H-benzo[d]imidazol-1-yl)-N-methyi-N-((S)-1-(pyridin-2-yl)ethyl)acetamide] yielded an IC50 of 425 nM.
`CC(C)(C#N)c1ccc(Cn2c(N3CCC[C@@H](N)C3)nc3ccccc32)cc1` [Example 380, (R)-2-(4-((2-(3-aminopiperidin-1-yl)-1H-benzo[d]imidazol-1-yl)methyl)phenyl)-2-methylpropanenitrile] showed an IC50 of 17000 nM.
For `Cc1nnc(Cn2c(N3CC[C@@H](F)[C@H](N)C3)nc3cc(F)cc(F)c32)s1` [Example 599, (3R,4R)-1-(5,7-difluoro-1-((5-methyl-1,3,4-thiadiazol-2-yl)methyl)-1H-benzo[d]imidazal-2-yl)-4-fluoropiperidin-3-amine], the IC50 was > 3750 nM.
`C[C@H](c1ccc(C#N)cn1)n1c(N2CC[C@@H](F)[C@H](N)C2)nc2ccc(C#N)cc21` [Example 223, 2-((3R,4R)-3-amino-4-fluoropiperidin-1-yl)-1-((R)-1-(5-cyanopyridin-2-yl)ethyl)-1H-benzo[d]imidazole-6-carbonitrile hydrochloride] was tested, and the IC50 was 51.5 nM.
`N[C@@H]1CN(c2nc3cc(F)cc(F)c3n2Cc2ncc(F)cn2)CC[C@H]1F` [Example 34, (3R,4R)-1-(5,7-difluoro-1-((5-fluoropyrimidin-2-yl)methyl)-1H-benzo[d]imidazol-2-yl)-4-fluoropiperidin-3-amine] was tested, and the IC50 was 68.9 nM.
Compound `N[C@@H]1CN(c2nc3ccc(F)cc3n2CC(=O)Nc2nccs2)CC[C@H]1F` [Example 660, 2-(2-((3R,4R)-3-amino-4-fluoropiperidin-1-yl)-6-fluoro-1H-benzo[d]imidazol-1-yl)-N-(thiazol-2-yl)acetamide] has an IC50 of 5.04 nM.
In the case of `CN(CC(F)(F)F)C(=O)Cn1c(N2CC[C@@H](N)C2)nc2ccc(F)cc21` [Example 490, (R)-2-(2-(3-aminopyrrolidin-1-yl)-6-fluoro-1H-benzo[d]imidazol-1-yl)-N-methyl-N-(2,2,2-trifluoroethyl)acetamide], the IC50 is reported as > 3750 nM.
Compound `CC1CCN1C(=O)Cn1c(N2CC[C@@H](F)[C@H](N)C2)nc2ccc(F)cc21` (stereo partly drawn) [Example 677, 2-(2-((3R,4R)-3-amino-4-fluoropiperidin-1-yl)-6-fluoro-1H-benzo[d]imidazol-1-yl)-1-(2-methylazetidin-1-yl)ethan-1-one] has an IC50 of 88.1 nM.
Work on `N#Cc1ccc(Cn2c(N3CC[C@@H](F)[C@H](N)C3)nc3ncc(C(F)(F)F)cc32)nc1` [Example 499, 6-((2-((3R,4R)-3-amino-4-fluoropiperidin-1-yl)-6-(trifluoromethyl)-1H-imidazo[4,5-b]pyridin-1-yl)methyl)nicotinonitrile] yielded an IC50 of 2.58 nM.
With `N#Cc1ccc(Cn2c(N3CC[C@@H](F)[C@H](N)C3)nc3c(Cl)cccc32)nc1` [Example 4] the IC50 was 1.67 nM.
With `CS(=O)(=O)c1ccc(Cn2c(N3CCC[C@@H](N)C3)nc3ccccc32)cc1` [Example 370, (R)-1-(1-(4-(methylsulfonyl)benzyl)-1H-benzo[d]imidazol-2-yl)piperidin-3-amine] the IC50 was > 50000 nM.
For `N#Cc1ccc(Cn2c(N3CCC[C@]4(CCCCN4)C3)nc3ccccc32)nc1` [Example 129, 6-((2-((6R)-1,8-diazaspiro[5.5]undecan-8-yl)-1H-benzimidazol-1-yl)methyl)-3-pyridinecarbonitrile], the IC50 was > 3750 nM.
Compound `N#Cc1ccc(Cn2c(N3CCC(F)(F)[C@H](N)C3)nc3cc(F)cc(F)c32)nc1` [Example 67, (R)-6-((2-(3-amino-4,4-difluoropiperidin-1-yl)-5,7-difluoro-1H-benzo[d]imidazol-1-yl)methyl)nicotinonitrile] has an IC50 of 272 nM.
In the case of `N[C@@H]1CN(c2nc3ccccc3n2Cc2ccc(F)cn2)CC[C@H]1F` [Example 189, (3R,4R)-4-fluoro-1-(1-((5-fluoropyridin-2-yl)methyl)-1H-benzo[d]imidazol-2-yl)piperidin-3-amine], the IC50 is reported as 3.59 nM.
Compound `CC1(CN)CCN(c2nc3ccccc3n2Cc2ccc(C#N)cc2)C1` (racemic) [Example 164, 4-((2-(3-(aminomethyl)-3-methylpyrrolidin-1-yl)-1H-benzo[d]imidazol-1-yl)methyl)benzonitrile] has an IC50 of 253 nM.
With `C[C@@H](c1ccc(Cl)cn1)n1c(N2CC[C@@H](F)[C@H](N)C2)nc2cc(Cl)ccc21` [Example 220, (3R,4R)-1-(5-chloro-1-((S)-1-(5-chloropyridin-2-yl)ethyl)-1H-benzo[d]imidazol-2-yl)-4-fluoropiperidin-3-amine hydrochloride] the IC50 was 0.986 nM.
`COc1cnc(Cn2c(N3CC[C@@H](F)[C@H](N)C3)nc3cc(C#N)ccc32)nc1` [Example 241, 2-((3R,4R)-3-amino-4-fluoropiperidin-1-yl)-1-((5-methoxypyrimidin-2-yl)methyl)-1H-benzo[d]imidazole-5-carbonitrile hydrochloride] was tested, and the IC50 was > 3750 nM.
`C[C@@H](c1ccc(C#N)cn1)n1c(N2CC[C@H]3OCCN[C@@H]3C2)nc2c(F)cc(F)cc21` [Example 270, 6-((1S)-1-(4,6-difluoro-2-((4aR,8aR)-hexahydro-2H-pyrido[4,3-b][1,4]oxazin-6(5H)-yl)-1H-benzimidazol-1-yl)ethyl)-3-pyridinecarbonitrile] gave an IC50 of 51.5 nM.
